Key:
Format in all cases: in vivo
[1] = tested on: upland rice (Oryza sp., var. Tebonnet, RICE); assay: Pre-emerge test, crop safety; conditions: crop damage rating 0-100, 14 days after application
Outline: (§1)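 Herbicidal damage is scored 0 (none) to 100 (complete plant death) two weeks after a simulated field spray. Rates span 15–1000 g ai/ha, delivered in acetone at 187 l/ha. For post-emergence treatments, plants have 2–3 leaves and the spray carries 0.25% v/v non-ionic surfactant.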

[2] = tested on: field corn (Zea mays L., var. Dekalb 535, CORN); assay: Pre-emerge test, crop safety; conditions: crop damage rating 0-100, 14 days after application
Outline: as §1

[3] = tested on: large crabgrass (Digitaria sanguinalis, DIGSA); assay: Pre-emerge test, greenhouse herbicide activity screening; conditions: phytotoxicity rating 0-100, 14 days after application
Outline: (§2)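 Compounds in acetone were track-sprayed at 187 l/ha, 15–1000 g ai/ha, onto sandy loam pots. Pre-emerge seeds were sown one day before spraying, with surface watering afterwards. Post-emerge plants were at the 2–3 leaf stage and sprayed with 0.25% v/v non-ionic surfactant. Injury was rated 0–100 at 14 days.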

[4] = tested on: ivyleaf morningglory (Ipomoea hederacea, IPOHE); assay: as above; conditions: phytotoxicity rating 0-100, 14 days after application
Outline: as §2

[5] = tested on: barnyardgrass (Echinochloa crus-galli, ECHCG); assay: as above; conditions: phytotoxicity rating 0-100, 14 days after application
Outline: as §2

[6] = tested on: sicklepod (Cassia obtusifolia, CASOB); assay: as above; conditions: phytotoxicity rating 0-100, 14 days after application
Outline: as §2

[7] = tested on: green foxtail (Setaria viridis, SETVI); assay: as above; conditions: phytotoxicity rating 0-100, 14 days after application
Outline: as §2

[8] = tested on: lambsquarters (Chenopodium album, CHEAL); assay: as above; conditions: phytotoxicity rating 0-100, 14 days after application
Outline: as §2

[9] = tested on: velvetleaf (Abutilon theophrasti, ABUTH); assay: as above; conditions: phytotoxicity rating 0-100, 14 days after application
Outline: as §2

[10] = tested on: johnsongrass (Sorghum halepense, SORHA); assay: as above; conditions: phytotoxicity rating 0-100, 14 days after application
Outline: as §2

[11] = tested on: upland rice (Oryza sp., var. Tebonnet, RICE); assay: Post-emerge test, crop safety; conditions: post-emerge, 14 days after application, rating scale 0-100
Outline: as §2

[12] = tested on: field corn (Zea mays L., var. Dekalb 535, CORN); assay: Post-emerge test, crop safety; conditions: post-emerge, 14 days after application, rating scale 0-100
Outline: as §2

[13] = tested on: large crabgrass (Digitaria sanguinalis, DIGSA); assay: Post-emerge test, greenhouse herbicide activity screening; conditions: post-emerge, 14 days after application, rating scale 0-100
Outline: (§3)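 Each test used a mechanized track sprayer delivering 187 l/ha of acetone solution at 15–1000 g ai/ha. Post-emerge foliage at 2–3 leaves was treated with added 0.25% v/v non-ionic surfactant and bottom-watered only. Injury was assessed on day 14, where 100 means total kill.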

[14] = tested on: redroot pigweed (Amaranthus retroflexus, AMARE); assay: as above; conditions: post-emerge, 14 days after application
Outline: as §3

[15] = tested on: ivyleaf morningglory (Ipomoea hederacea, IPOHE); assay: as above; conditions: post-emerge, 14 days after application, rating scale 0-100
Outline: as §3

[16] = tested on: barnyardgrass (Echinochloa crus-galli, ECHCG); assay: as above; conditions: post-emerge, 14 days after application, rating scale 0-100
Outline: as §3

[17] = tested on: sicklepod (Cassia obtusifolia, CASOB); assay: as above; conditions: post-emerge, 14 days after application, rating scale 0-100
Outline: as §3

[18] = tested on: green foxtail (Setaria viridis, SETVI); assay: as above; conditions: post-emerge, 14 days after application, rating scale 0-100
Outline: as §3

[19] = tested on: lambsquarters (Chenopodium album, CHEAL); assay: as above; conditions: post-emerge, 14 days after application, rating scale 0-100
Outline: as §3

[20] = tested on: velvetleaf (Abutilon theophrasti, ABUTH); assay: as above; conditions: post-emerge, 14 days after application, rating scale 0-100
Outline: as §3

[21] = tested on: johnsongrass (Sorghum halepense, SORHA); assay: as above; conditions: post-emerge, 14 days after application, rating scale 0-100
Outline: as §3

[22] = tested on: redroot pigweed (Amaranthus retroflexus, AMARE); assay: Pre-emerge test, greenhouse herbicide activity screening; conditions: phytotoxicity rating 0-100, 14 days after application
Outline: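 Sandy loam pots; pre-emerge: sown 1 d pre-spray, surface-watered after, then bottom-watered. Post-emerge: sown 8–21 d before, 2–3 leaf stage, + 0.25% v/v NIS, bottom-watered. Acetone, 187 l/ha track spray, 15–1000 g ai/ha. 0–100 injury score, day 14.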

For `COc1c(Cl)cc(F)c(-n2c(=O)cc(C(F)(F)F)n(C)c2=O)c1NC(=O)OCc1ccccc1C(F)(F)F` [4-33], the “Pre-emerge Herbicidal Activity RICE” value ([1]; 63 g ai/ha) was 20, the “Pre-emerge Herbicidal Activity RICE” value ([1]; 250 g ai/ha) was 40 and the “Pre-emerge Herbicidal Activity CORN” value ([2]; 63 g ai/ha) was 10. The “Pre-emerge Herbicidal Activity CORN” value ([2]; 250 g ai/ha) was 50, the “Pre-emerge Herbicidal Activity DIGSA” value ([3]; 63 g ai/ha) was 45 and the “Pre-emerge Herbicidal Activity DIGSA” value ([3]; 250 g ai/ha) was 90. For the same molecule, the “Pre-emerge Herbicidal Activity IPOHE” value ([4]; 63 g ai/ha) was 0, the “Pre-emerge Herbicidal Activity IPOHE” value ([4]; 250 g ai/ha) was 70 and the “Pre-emerge Herbicidal Activity ECHCG” value ([5]; 63 g ai/ha) was 20. The “Pre-emerge Herbicidal Activity ECHCG” value ([5]; 250 g ai/ha) was 80, the “Pre-emerge Herbicidal Activity CASOB” value ([6]; 63 g ai/ha) was 0 and the “Pre-emerge Herbicidal Activity CASOB” value ([6]; 250 g ai/ha) was 50. The “Pre-emerge Herbicidal Activity SETVI” value ([7]; 63 g ai/ha) was 100, the “Pre-emerge Herbicidal Activity SETVI” value ([7]; 250 g ai/ha) was 100 and the “Pre-emerge Herbicidal Activity CHEAL” value ([8]; 63 g ai/ha) was 100. The “Pre-emerge Herbicidal Activity CHEAL” value ([8]; 250 g ai/ha) was 100, the “Pre-emerge Herbicidal Activity ABUTH” value ([9]; 63 g ai/ha) was 50 and the “Pre-emerge Herbicidal Activity ABUTH” value ([9]; 250 g ai/ha) was 100. For the same molecule, the “Pre-emerge Herbicidal Activity SORHA” value ([10]; 63 g ai/ha) was 30, the “Pre-emerge Herbicidal Activity SORHA” value ([10]; 250 g ai/ha) was 80 and the “phytotoxicity rating RICE (crop damage)” value ([11]; 63 g ai/ha) was 30. For the same molecule, the “phytotoxicity rating RICE (crop damage)” value ([11]; 250 g ai/ha) was 40, the “phytotoxicity rating CORN (crop damage)” value ([12]; 63 g ai/ha) was 15 and the “phytotoxicity rating CORN (crop damage)” value ([12]; 250 g ai/ha) was 25. For the same molecule, the “phytotoxicity rating DIGSA” value ([13]; 63 g ai/ha) was 10, the “phytotoxicity rating DIGSA” value ([13]; 250 g ai/ha) was 30 and the “phytotoxicity rating AMARE” value ([14]; 63 g ai/ha, rating scale 0-100 (0 no damage, 100 complete death)) was 100. For the same molecule, the “phytotoxicity rating AMARE” value ([14]; 250 g ai/ha, rating scale 0-100) was 100, the “phytotoxicity rating IPOHE” value ([15]; 63 g ai/ha) was 100 and the “phytotoxicity rating IPOHE” value ([15]; 250 g ai/ha) was 100. For the same molecule, the “phytotoxicity rating ECHCG” value ([16]; 63 g ai/ha) was 10, the “phytotoxicity rating ECHCG” value ([16]; 250 g ai/ha) was 20 and the “phytotoxicity rating CASOB” value ([17]; 63 g ai/ha) was 30. For the same molecule, the “phytotoxicity rating CASOB” value ([17]; 250 g ai/ha) was 70, the “phytotoxicity rating SETVI” value ([18]; 63 g ai/ha) was 30 and the “phytotoxicity rating SETVI” value ([18]; 250 g ai/ha) was 40. For the same molecule, the “phytotoxicity rating CHEAL” value ([19]; 63 g ai/ha) was 90, the “phytotoxicity rating CHEAL” value ([19]; 250 g ai/ha) was 100 and the “phytotoxicity rating ABUTH” value ([20]; 63 g ai/ha) was 100. The “phytotoxicity rating ABUTH” value ([20]; 250 g ai/ha) was 100, the “phytotoxicity rating SORHA” value ([21]; 63 g ai/ha) was 0 and the “phytotoxicity rating SORHA” value ([21]; 250 g ai/ha) was 30. For the same molecule, the “Pre-emerge Herbicidal Activity AMARE” value ([22]; 63 g ai/ha) was 100 and the “Pre-emerge Herbicidal Activity AMARE” value ([22]; 250 g ai/ha) was 100.
